# ChEMBL document CHEMBL1177794, “Broad spectrum alkynyl inhibitors of T315I Bcr-Abl” (Bioorg Med Chem Lett, 2010)
# Legend:
# [1] = target: T1, Epidermal growth factor receptor (Homo sapiens) (UniProt P04626+P00533+Q15303+P21860); assay: Inhibition of EGFR L747-T751del, Sins mutant at 10 uM; values are per cent of control
# [2] = target: Mitogen-activated protein kinase kinase kinase kinase 3 (Homo sapiens) (UniProt Q8IVH8); assay: Inhibition of MAP4K3 at 10 uM; values are per cent of control
# [3] = system: Phosphatidylinositol 4,5-bisphosphate 3-kinase catalytic subunit alpha isoform (Homo sapiens), P42336 [M1043I]; assay: Inhibition of PIK3CA M1043I mutant at 10 uM
# [4] = target: Serine/threonine-protein kinase NLK (Homo sapiens) (UniProt Q9UBE8); assay: Inhibition of NLK at 10 uM
# [5] = target: Dual specificity mitogen-activated protein kinase kinase 7 (Homo sapiens) (UniProt O14733); assay: Inhibition of MKK7 at 10 uM
# [6] = target: Ribosomal protein S6 kinase alpha-3 (Homo sapiens) (UniProt P51812); assay: Inhibition of RSK2 N-terminal domain1 at 10 uM
# [7] = target: Serine/threonine-protein kinase PLK1 (Homo sapiens) (UniProt P53350); assay: Inhibition of PLK1 at 10 uM
# [8] = system: Mast/stem cell growth factor receptor Kit (Homo sapiens), P10721 [V559D,V654A]; assay: Inhibition of KIT V559D, V654A mutant at 10 uM; conditions: values are per cent of control
# [9] = target: T1, Epidermal growth factor receptor (Homo sapiens); assay: Inhibition of EGFR E746-A750del mutant at 10 uM; values are per cent of control
# [10] = target: Dual specificity protein kinase TTK (Homo sapiens) (UniProt P33981); assay: Inhibition of TTK at 10 uM; conditions: values are per cent of control
# [11] = target: Protein kinase C delta type (Homo sapiens) (UniProt Q05655); assay: Inhibition of PRKCD at 10 uM
# [12] = system: Proto-oncogene tyrosine-protein kinase receptor Ret (Homo sapiens), P07949 [V804L]; assay: Inhibition of RET V804L mutant at 10 uM; values are per cent of control
# [13] = target: Ephrin type-B receptor 3 (Homo sapiens) (UniProt P54753); assay: Inhibition of EPHB3 at 10 uM; conditions: values are per cent of control
# [14] = target: Protein kinase C iota type (Homo sapiens) (UniProt P41743); assay: Inhibition of PRKCI at 10 uM
# [15] = target: Serine/threonine-protein kinase PAK 3 (Homo sapiens) (UniProt O75914); assay: Inhibition of PAK3 at 10 uM; values are per cent of control
# [16] = target: Transient receptor potential cation channel subfamily M member 6 (Homo sapiens) (UniProt Q9BX84); assay: Inhibition of TRPM6 at 10 uM; conditions: values are per cent of control
# [17] = target: STE20-like serine/threonine-protein kinase (Homo sapiens) (UniProt Q9H2G2); assay: Inhibition of SLK at 10 uM
# [18] = target: Serine/threonine-protein kinase TBK1 (Homo sapiens) (UniProt Q9UHD2); assay: Inhibition of TBK1 at 10 uM
# [19] = target: Serine/threonine-protein kinase PLK4 (Homo sapiens) (UniProt O00444); assay: Inhibition of PLK4 at 10 uM
# [20] = system: Tyrosine-protein kinase ABL1 (Homo sapiens), P00519 [H396P]; assay: Inhibition of non phosphorylated ABL1 H396P mutant at 10 uM; conditions: values are per cent of control
# [21] = target: Protein kinase C eta type (Homo sapiens) (UniProt P24723); assay: Inhibition of PRKCH at 10 uM
# [22] = target: ALK tyrosine kinase receptor (Homo sapiens) (UniProt Q9UM73); assay: Inhibition of ALK at 10 uM; values are per cent of control
# [23] = target: Serine/threonine-protein kinase D2 (Homo sapiens) (UniProt Q9BZL6); assay: Inhibition of PRKD2 at 10 uM
# [24] = target: Rho-associated protein kinase 1 (Homo sapiens) (UniProt Q13464); assay: Inhibition of ROCK1 at 10 uM
# [25] = target: Bone morphogenetic protein receptor type-1A (Homo sapiens) (UniProt P36894); assay: Inhibition of BMPR1A at 10 uM; conditions: values are per cent of control
# [26] = target: Mitogen-activated protein kinase kinase kinase 19 (Homo sapiens) (UniProt Q56UN5); assay: Inhibition of YSK4 at 10 uM; conditions: values are per cent of control
# [27] = target: Ribosomal protein S6 kinase alpha-6 (Homo sapiens) (UniProt Q9UK32); assay: Inhibition of RSK4 C-terminal domain2 at 10 uM
# [28] = target: Insulin-like growth factor 1 receptor (Homo sapiens) (UniProt P08069); assay: Inhibition of IGF1R at 10 uM; conditions: values are per cent of control
# [29] = target: Phosphatidylinositol 4-phosphate 3-kinase C2 domain-containing subunit beta (Homo sapiens) (UniProt O00750); assay: Inhibition of PIK3C2B at 10 uM
# [30] = target: Citron Rho-interacting kinase (Homo sapiens) (UniProt O14578); assay: Inhibition of CIT at 10 uM; values are per cent of control
# [31] = system: Tyrosine-protein kinase ABL1 (Homo sapiens), P00519 [F317L]; assay: Inhibition of phosphorylated ABL1 F317L mutant at 10 uM; conditions: values are per cent of control
# [32] = target: Dual specificity protein kinase CLK3 (Homo sapiens) (UniProt P49761); assay: Inhibition of CLK3 at 10 uM; conditions: values are per cent of control
# BaF3 [33] = assay: Antiproliferative activity against mouse BAF3 cells expressing wild type Bcr-Abl; type: functional, cell-based
# [34] = target: Phosphatidylinositol 4-phosphate 5-kinase type-1 gamma (Homo sapiens) (UniProt O60331); assay: Inhibition of PIP5K1C at 10 uM
# [35] = target: MAP/microtubule affinity-regulating kinase 3 (Homo sapiens) (UniProt P27448); assay: Inhibition of MARK3 at 10 uM; conditions: values are per cent of control
# [36] = target: Phosphatidylinositol 4-phosphate 5-kinase type-1 alpha (Homo sapiens) (UniProt Q99755); assay: Inhibition of PIP5K1A at 10 uM
# [37] = target: NT-3 growth factor receptor (Homo sapiens) (UniProt Q16288); assay: Inhibition of TRKC at 10 uM; conditions: values are per cent of control
# BaF3 [38] = assay: Antiproliferative activity against mouse BAF3 cells; type: functional, cell-based
# [39] = target: Serine/threonine-protein kinase PAK 6 (Homo sapiens) (UniProt Q9NQU5); assay: Inhibition of PAK6 at 10 uM
# [40] = target: Tyrosine-protein kinase CSK (Homo sapiens) (UniProt P41240); assay: Inhibition of CSK at 10 uM; values are per cent of control
# [41] = target: Ephrin type-B receptor 6 (Homo sapiens) (UniProt O15197); assay: Inhibition of EPHB6 at 10 uM; conditions: values are per cent of control
# [42] = target: Fibroblast growth factor receptor 4 (Homo sapiens) (UniProt P22455); assay: Inhibition of FGFR4 at 10 uM; conditions: values are per cent of control
# Chain of Mitogen-activated protein kinase kinase kinase 19 (Homo sapiens) (Q56UN5 whole entry, the tested form may be a part): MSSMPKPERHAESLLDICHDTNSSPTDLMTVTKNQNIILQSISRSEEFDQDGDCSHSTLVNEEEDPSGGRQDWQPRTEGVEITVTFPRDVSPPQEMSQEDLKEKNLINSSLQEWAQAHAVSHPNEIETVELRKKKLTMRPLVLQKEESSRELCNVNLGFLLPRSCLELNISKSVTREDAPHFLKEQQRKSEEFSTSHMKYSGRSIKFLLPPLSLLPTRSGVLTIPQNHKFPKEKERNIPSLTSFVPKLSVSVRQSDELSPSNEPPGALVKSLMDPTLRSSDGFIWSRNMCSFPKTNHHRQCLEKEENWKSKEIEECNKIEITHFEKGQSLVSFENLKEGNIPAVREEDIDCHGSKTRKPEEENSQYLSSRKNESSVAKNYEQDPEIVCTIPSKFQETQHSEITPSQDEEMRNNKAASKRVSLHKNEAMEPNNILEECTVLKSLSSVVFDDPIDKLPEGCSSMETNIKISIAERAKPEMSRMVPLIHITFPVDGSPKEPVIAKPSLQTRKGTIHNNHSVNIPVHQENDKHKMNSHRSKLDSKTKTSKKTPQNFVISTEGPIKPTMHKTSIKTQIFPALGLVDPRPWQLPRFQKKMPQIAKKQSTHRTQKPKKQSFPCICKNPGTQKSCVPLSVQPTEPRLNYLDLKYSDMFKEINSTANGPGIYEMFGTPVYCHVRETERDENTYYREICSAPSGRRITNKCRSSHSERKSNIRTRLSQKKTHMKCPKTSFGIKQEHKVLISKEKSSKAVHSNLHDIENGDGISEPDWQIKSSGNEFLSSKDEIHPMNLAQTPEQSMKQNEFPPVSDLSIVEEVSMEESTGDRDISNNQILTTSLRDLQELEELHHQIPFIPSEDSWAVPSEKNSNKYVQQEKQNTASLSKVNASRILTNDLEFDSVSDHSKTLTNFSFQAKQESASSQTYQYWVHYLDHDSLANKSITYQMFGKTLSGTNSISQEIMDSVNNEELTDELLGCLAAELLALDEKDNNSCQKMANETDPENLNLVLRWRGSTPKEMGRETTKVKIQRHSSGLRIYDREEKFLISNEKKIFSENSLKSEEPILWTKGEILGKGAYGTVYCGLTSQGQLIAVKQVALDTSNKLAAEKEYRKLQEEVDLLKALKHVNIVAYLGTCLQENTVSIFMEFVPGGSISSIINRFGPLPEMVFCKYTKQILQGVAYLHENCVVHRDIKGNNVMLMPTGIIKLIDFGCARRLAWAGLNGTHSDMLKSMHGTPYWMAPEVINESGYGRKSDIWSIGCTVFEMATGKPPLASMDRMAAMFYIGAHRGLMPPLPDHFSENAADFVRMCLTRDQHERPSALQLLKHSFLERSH
# Chain of Protein kinase C iota type (Homo sapiens) (P41743 whole entry): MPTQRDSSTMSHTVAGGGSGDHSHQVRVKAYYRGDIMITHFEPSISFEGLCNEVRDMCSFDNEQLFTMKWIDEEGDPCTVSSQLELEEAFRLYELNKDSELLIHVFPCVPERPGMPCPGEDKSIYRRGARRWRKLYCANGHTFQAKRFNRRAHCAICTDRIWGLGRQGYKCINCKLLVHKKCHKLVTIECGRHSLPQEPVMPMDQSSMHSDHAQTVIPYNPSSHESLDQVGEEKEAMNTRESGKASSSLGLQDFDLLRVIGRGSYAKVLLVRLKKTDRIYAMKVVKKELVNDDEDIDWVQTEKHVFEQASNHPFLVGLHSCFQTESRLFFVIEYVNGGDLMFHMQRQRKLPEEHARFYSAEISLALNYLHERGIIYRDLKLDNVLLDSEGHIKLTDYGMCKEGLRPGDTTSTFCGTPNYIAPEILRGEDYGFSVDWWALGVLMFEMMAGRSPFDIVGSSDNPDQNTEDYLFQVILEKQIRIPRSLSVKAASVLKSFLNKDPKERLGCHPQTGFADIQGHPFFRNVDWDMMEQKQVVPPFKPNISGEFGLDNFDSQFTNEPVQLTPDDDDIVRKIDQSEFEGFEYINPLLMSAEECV
# Chain of Bone morphogenetic protein receptor type-1A (Homo sapiens) (P36894 whole entry): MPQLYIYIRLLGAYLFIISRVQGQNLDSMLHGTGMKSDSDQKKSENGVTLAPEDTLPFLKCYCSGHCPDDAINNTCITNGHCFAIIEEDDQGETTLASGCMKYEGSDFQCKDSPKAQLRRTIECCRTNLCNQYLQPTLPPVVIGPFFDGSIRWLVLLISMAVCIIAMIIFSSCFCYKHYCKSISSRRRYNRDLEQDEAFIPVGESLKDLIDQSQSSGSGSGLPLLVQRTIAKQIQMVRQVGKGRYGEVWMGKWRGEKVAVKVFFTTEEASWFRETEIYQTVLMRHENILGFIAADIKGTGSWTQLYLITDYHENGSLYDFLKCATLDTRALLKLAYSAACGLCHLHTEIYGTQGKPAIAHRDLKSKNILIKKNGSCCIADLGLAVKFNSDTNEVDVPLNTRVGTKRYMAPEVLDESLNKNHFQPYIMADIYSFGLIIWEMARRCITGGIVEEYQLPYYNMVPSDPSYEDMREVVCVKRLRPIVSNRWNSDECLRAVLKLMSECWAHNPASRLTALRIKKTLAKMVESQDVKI
# Chain of Rho-associated protein kinase 1 (Homo sapiens) (Q13464 2-1354 limits assumed): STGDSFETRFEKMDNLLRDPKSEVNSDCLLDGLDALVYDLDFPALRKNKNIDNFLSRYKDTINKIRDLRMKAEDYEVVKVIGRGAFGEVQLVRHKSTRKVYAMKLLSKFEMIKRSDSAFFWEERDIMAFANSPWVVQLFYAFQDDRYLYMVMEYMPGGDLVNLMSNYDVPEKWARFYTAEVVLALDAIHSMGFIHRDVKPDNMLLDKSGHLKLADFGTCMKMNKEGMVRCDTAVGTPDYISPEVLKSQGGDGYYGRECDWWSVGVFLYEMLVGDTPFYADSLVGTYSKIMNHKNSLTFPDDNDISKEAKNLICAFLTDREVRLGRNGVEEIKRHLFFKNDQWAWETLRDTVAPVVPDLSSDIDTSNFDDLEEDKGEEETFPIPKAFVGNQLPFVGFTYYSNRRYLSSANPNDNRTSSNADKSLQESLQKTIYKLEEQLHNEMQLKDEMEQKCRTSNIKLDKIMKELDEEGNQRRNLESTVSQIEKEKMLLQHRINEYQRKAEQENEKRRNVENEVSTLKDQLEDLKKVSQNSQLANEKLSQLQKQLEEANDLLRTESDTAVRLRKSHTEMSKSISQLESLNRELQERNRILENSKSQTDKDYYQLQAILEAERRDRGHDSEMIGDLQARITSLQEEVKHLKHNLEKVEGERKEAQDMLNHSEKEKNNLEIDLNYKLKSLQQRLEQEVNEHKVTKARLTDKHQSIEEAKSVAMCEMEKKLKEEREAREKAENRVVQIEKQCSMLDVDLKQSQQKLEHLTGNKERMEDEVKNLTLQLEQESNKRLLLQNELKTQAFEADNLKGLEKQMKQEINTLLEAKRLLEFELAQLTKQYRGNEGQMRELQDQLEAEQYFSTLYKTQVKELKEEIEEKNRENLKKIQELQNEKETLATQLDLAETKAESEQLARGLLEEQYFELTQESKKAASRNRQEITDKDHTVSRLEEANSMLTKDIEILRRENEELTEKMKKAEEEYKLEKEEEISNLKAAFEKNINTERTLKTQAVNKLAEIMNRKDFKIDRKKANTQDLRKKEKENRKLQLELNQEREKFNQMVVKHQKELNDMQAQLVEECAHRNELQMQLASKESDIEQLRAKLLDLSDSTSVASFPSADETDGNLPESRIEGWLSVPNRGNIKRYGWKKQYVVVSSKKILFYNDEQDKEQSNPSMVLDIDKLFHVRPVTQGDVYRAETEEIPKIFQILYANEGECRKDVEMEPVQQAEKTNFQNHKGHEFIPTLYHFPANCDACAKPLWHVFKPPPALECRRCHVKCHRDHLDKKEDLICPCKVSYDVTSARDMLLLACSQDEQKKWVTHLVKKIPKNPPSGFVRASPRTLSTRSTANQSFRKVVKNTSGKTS
# Chain of MAP/microtubule affinity-regulating kinase 3 (Homo sapiens) (P27448 whole entry, looked up): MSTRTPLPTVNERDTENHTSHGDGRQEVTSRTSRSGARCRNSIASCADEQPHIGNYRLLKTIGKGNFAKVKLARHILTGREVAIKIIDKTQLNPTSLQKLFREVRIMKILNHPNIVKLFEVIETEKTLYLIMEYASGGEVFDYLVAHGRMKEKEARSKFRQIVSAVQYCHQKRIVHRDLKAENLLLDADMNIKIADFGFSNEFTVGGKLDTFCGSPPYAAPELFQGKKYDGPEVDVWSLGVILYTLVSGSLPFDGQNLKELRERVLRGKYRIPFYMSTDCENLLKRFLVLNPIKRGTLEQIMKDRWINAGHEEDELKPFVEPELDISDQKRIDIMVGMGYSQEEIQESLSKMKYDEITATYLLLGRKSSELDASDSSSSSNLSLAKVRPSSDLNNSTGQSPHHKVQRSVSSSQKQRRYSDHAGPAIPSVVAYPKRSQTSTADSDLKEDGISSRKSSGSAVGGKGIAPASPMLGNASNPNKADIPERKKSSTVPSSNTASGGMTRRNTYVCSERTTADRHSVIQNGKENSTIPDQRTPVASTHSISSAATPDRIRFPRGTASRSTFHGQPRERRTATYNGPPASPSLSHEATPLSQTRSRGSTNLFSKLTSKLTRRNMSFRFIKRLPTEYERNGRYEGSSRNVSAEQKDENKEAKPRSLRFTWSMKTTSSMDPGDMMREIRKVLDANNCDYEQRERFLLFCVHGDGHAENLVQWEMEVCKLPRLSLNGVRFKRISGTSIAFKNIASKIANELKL
# Chain of Dual specificity mitogen-activated protein kinase kinase 7 (Homo sapiens) (O14733 whole entry, the tested form may be a part): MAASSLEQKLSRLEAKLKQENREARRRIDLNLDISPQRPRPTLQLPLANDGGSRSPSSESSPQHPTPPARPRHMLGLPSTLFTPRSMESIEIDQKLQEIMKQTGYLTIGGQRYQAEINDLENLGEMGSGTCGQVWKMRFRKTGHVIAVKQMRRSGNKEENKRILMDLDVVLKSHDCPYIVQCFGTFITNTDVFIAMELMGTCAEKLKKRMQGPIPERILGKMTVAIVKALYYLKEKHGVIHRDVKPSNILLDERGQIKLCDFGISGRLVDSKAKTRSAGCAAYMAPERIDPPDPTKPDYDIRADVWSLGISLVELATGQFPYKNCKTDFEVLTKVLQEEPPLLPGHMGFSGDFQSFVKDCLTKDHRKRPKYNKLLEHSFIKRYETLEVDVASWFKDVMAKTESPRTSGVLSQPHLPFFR
smiles,measurement,setting,value
CCN1CCN(Cc2ccc(NC(=O)c3ccc(C)c(C#Cc4cnc5[nH]ccc5c4)c3)cc2C(F)(F)F)CC1,"level, % of control",[1],0.4%
same,"level, % of control",[2],1.8%
same,inhibition,[3],100%
same,inhibition,[4],13%
same,inhibition,[5],5.4%
same,inhibition,[6],2.8%
same,inhibition,[7],56%
same,"residual binding, % of control",[8],1.4%
same,"level, % of control",[9],0.75%
same,"residual binding, % of control",[10],2%
same,inhibition,[11],24%
same,"level, % of control",[12],0%
same,"residual binding, % of control",[13],2.7%
same,inhibition,[14],40%
same,% of control,[15],1.1%
same,"residual binding, % of control",[16],64%
same,inhibition,[17],0.3%
same,inhibition,[18],84%
same,inhibition,[19],97%
same,"residual binding, % of control",[20],0.05%
same,inhibition,[21],79%
same,"level, % of control",[22],52%
same,inhibition,[23],13%
same,inhibition,[24],60%
same,"residual binding, % of control",[25],53%
same,"residual binding, % of control",[26],0.1%
same,inhibition,[27],29%
same,"residual binding, % of control",[28],95%
same,inhibition,[29],100%
same,"level, % of control",[30],0%
same,"residual binding, % of control",[31],0.85%
same,"residual binding, % of control",[32],94%
same,EC50,BaF3 [33],< 1 nM
same,inhibition,[34],100%
same,"residual binding, % of control",[35],42%
same,inhibition,[36],10%
same,"residual binding, % of control",[37],0.35%
same,EC50,BaF3 [38],1000 nM
same,inhibition,[39],85%
same,"level, % of control",[40],0.1%
same,"residual binding, % of control",[41],0.85%
same,"residual binding, % of control",[42],0%
CCN1CCN(Cc2ccc(NC(=O)c3ccc(C)c(C#Cc4cccnc4)c3)cc2C(F)(F)F)CC1,"level, % of control",[1],0.45%
same,"level, % of control",[2],2.6%
same,inhibition,[3],83%
same,inhibition,[4],8.2%
same,inhibition,[5],11%
same,inhibition,[6],16%
same,inhibition,[7],58%
same,"residual binding, % of control",[8],4.2%
same,"level, % of control",[9],1.8%
same,"residual binding, % of control",[10],16%
same,inhibition,[11],39%
same,"level, % of control",[12],0%
same,"residual binding, % of control",[13],0.25%
same,inhibition,[14],42%
same,% of control,[15],3.3%
same,"residual binding, % of control",[16],49%
same,inhibition,[17],0.1%
same,inhibition,[18],100%
same,inhibition,[19],88%
same,"residual binding, % of control",[20],0%
same,inhibition,[21],67%
same,"level, % of control",[22],23%
same,inhibition,[23],56%
same,inhibition,[24],43%
same,"residual binding, % of control",[25],81%
same,"residual binding, % of control",[26],0.1%
same,inhibition,[27],6.8%
same,"residual binding, % of control",[28],100%
same,inhibition,[29],100%
same,"level, % of control",[30],0%
same,"residual binding, % of control",[31],0.85%
same,"residual binding, % of control",[32],70%
same,EC50,BaF3 [33],< 1 nM
same,inhibition,[34],90%
same,"residual binding, % of control",[35],69%
same,inhibition,[36],79%
same,"residual binding, % of control",[37],0.35%
same,EC50,BaF3 [38],1590 nM
same,inhibition,[39],100%
same,"level, % of control",[40],0.15%
same,"residual binding, % of control",[41],8.8%
same,"residual binding, % of control",[42],0%
